Experimental data published in patent publication US9586953B2, “Prodrugs of amino quinazoline kinase inhibitor” (GlaxoSmithKline Intellectual Property Development Limited, priority 2012, dated 2017).

Tests used:
[1] = In vivo Assay (II): half life of the prodrug after oral administration in rat; conditions: whole blood, rat (n=2), orally administered at a dose equivalent to 2 mg/kg of the parent ethanol compound, LC/MS, read-out: half life (T1/2)
Method: (§1) 2-((4-(Benzo[d]thiazol-5-ylamino)-6-(tert-butylsulfonyl)quinazolin-7-yl)oxy)ethyl dihydrogen phosphate was orally administered at a dose equivalent to 2 mg/kg of 2-((4-(benzo[d]thiazol-5-ylamino)-6-(tert-butylsulfonyl)quinazolin-7-yl)oxy)ethanol to a series of test animals. Rats (n=2) and dogs (n=3) were administered 2-((4-(benzo[d]thiazol-5-ylamino)-6-(tert-butylsulfonyl)quinazolin-7-yl)oxy)ethyl dihydrogen phosphate, whereas minipigs (male Göttingen minipigs (n=3)) were administered 2-((4-(benzo[d]thiazol-5-ylamino)-6-(tert-butylsulfonyl)quinazolin-7-yl)oxy)ethyl disodium phosphate. Blood samples were taken from each test animal at intervals between 0 to 24 hrs (25 hrs in dog) after administration. The concentration 2-((4-(benzo[d]thiazol-5-ylamino)-6-(tert-butylsulfonyl)quinazolin-7-yl)oxy)ethanol in each sample was determined by LC/MS. The average blood concentrations of 2-((4-(benzo[d]thiazol-5-ylamino)-6-(tert-butylsulfonyl)quinazolin-7-yl)oxy)ethanol in each test species, following oral administration of 2-((4-(benzo[d]thiazol-5-ylamino)-6-(tert-butylsulfonyl)quinazolin-7-yl)oxy)ethyl dihydrogen phosphate or disodium phosphate are shown in FIG. 4.

[2] = In vivo Assay (II): half life of the prodrug after oral administration in dog; conditions: whole blood, dog (n=3), orally administered at a dose equivalent to 2 mg/kg of the parent ethanol compound, LC/MS, read-out: half life (T1/2)
Method: as §1

[3] = In vivo Assay (II): half life of the prodrug after oral administration in minipig; set-up: species or system male Göttingen minipigs; conditions: male, Göttingen, whole blood, minipig (n=3), orally administered at a dose equivalent to 2 mg/kg of the parent ethanol compound, LC/MS, read-out: half life (T1/2)
Method: as §1

For CC(C)(C)S(=O)(=O)c1cc2c(Nc3ccc4scnc4c3)ncnc2cc1OCCOP(=O)(O)O [Example 1, 2-((4-(Benzo[d]thiazol-5-ylamino)-6-(tert-butylsulfonyl)quinazolin-7-yl)oxy)ethyl dihydrogen phosphate], the half-life [1] was 15 min and the half-life [2] was 5 min.
For CC(C)(C)S(=O)(=O)c1cc2c(Nc3ccc4scnc4c3)ncnc2cc1OCCOP(=O)(O)O [Example 2, 2-((4-(Benzo[d]thiazol-5-ylamino)-6-(tert-butylsulfonyl)quinazolin-7-yl)oxy)ethyl disodium phosphate], the half-life [3] was 26 min.
